Measurements from ChEMBL document CHEMBL3526034 (Drug Metab Dispos, 2013).

Assays:
CYP2C19 = CYP2C19 (Homo sapiens, UniProt P33261); assay: Inhibition of CYP2C19 in human liver microsomes using S-mephenytoin as substrate at 100 uM preincubated for 20 mins with substrate prior to initiation of reaction with NADPH by HPLC analysis; type: ADME; details: probe S-mephenytoin
Cytochrome P450 2C9 = Cytochrome P450 2C9 (Homo sapiens, UniProt P11712); assay: Drug metabolism in supersomes expressing human recombinant CYP2C9 assessed as NADPH-fortified enzyme-mediated metabolite formation at 5 uM after 120 mins by radio HPLC analysis; type: ADME; details: 2 h
Sequence of Cytochrome P450 2C9 (P11712 whole entry): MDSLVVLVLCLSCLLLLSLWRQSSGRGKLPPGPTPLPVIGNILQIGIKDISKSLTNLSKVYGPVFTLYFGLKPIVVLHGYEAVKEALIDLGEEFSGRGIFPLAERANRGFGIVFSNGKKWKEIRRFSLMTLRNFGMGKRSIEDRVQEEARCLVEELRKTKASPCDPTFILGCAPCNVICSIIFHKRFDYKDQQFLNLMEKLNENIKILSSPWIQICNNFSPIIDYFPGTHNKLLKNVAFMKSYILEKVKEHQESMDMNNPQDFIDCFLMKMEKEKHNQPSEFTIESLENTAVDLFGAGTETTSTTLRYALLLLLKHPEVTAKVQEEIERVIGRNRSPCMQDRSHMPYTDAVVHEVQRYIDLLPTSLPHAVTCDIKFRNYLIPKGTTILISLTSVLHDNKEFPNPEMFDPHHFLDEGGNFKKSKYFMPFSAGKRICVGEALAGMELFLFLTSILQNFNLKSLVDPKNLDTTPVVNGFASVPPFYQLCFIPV

[1] = target: Solute carrier organic anion transporter family member 1B1 (Homo sapiens, UniProt Q9Y6L6); assay: Inhibition of human OATP1B1 expressed in CHO cells using [3H]estradiol 17beta-D-glucuronide as substrate by liquid scintillation counting analysis; type: ADME, cell-based
Sequence of Solute carrier organic anion transporter family member 1B1 (Q9Y6L6 whole entry): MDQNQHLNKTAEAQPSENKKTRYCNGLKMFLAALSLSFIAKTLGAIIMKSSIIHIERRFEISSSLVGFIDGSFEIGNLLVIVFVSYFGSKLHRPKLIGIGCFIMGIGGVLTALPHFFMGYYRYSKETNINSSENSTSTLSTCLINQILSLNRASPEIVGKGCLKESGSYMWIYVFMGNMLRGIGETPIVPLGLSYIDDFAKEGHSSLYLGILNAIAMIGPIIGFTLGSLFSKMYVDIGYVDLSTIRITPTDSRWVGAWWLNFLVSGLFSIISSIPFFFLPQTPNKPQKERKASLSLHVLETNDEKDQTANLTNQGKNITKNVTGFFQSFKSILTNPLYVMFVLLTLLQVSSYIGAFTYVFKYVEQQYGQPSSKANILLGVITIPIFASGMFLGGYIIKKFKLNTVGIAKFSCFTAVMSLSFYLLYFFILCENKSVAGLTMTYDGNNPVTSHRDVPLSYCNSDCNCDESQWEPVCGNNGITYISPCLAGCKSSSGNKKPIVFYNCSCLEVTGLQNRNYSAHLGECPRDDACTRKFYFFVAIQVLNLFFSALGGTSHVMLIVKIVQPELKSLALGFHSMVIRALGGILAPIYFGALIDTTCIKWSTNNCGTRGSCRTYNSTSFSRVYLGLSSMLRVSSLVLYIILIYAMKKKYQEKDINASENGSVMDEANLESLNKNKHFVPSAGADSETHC

Cytochrome P450 1A2 = target: T1, Cytochrome P450 1A2 (Homo sapiens, UniProt P05177); assay: Drug metabolism in supersomes expressing human recombinant CYP1A2 assessed as NADPH-fortified enzyme-mediated metabolite formation at 5 uM after 120 mins by radio HPLC analysis; type: ADME; details: 2 h
T1 sequence (P05177 whole entry): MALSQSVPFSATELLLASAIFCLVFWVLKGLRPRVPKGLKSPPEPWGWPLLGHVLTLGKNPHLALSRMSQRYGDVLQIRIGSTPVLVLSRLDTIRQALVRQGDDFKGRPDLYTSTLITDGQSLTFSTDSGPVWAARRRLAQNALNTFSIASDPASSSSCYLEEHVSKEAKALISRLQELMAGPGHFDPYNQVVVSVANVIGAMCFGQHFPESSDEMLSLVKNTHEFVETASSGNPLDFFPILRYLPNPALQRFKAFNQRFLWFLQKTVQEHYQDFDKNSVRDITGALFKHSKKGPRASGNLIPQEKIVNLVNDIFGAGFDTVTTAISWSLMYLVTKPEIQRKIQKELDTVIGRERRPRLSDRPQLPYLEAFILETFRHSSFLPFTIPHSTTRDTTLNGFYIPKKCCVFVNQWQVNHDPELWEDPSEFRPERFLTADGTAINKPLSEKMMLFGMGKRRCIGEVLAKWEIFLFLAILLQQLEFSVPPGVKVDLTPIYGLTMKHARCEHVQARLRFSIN

[2] = target: T2, Broad substrate specificity ATP-binding cassette transporter ABCG2 (Homo sapiens, UniProt Q9UNQ0); assay: Inhibition of BCRP (unknown origin) expressed in MDCK2 cells assessed as basolateral to apical transport of [14C]cimetidine at 30 uM after 90 mins by liquid scintillation counting analysis; type: ADME, cell-based; details: mdck-ii, 1.5 h
T2 sequence (Q9UNQ0 whole entry): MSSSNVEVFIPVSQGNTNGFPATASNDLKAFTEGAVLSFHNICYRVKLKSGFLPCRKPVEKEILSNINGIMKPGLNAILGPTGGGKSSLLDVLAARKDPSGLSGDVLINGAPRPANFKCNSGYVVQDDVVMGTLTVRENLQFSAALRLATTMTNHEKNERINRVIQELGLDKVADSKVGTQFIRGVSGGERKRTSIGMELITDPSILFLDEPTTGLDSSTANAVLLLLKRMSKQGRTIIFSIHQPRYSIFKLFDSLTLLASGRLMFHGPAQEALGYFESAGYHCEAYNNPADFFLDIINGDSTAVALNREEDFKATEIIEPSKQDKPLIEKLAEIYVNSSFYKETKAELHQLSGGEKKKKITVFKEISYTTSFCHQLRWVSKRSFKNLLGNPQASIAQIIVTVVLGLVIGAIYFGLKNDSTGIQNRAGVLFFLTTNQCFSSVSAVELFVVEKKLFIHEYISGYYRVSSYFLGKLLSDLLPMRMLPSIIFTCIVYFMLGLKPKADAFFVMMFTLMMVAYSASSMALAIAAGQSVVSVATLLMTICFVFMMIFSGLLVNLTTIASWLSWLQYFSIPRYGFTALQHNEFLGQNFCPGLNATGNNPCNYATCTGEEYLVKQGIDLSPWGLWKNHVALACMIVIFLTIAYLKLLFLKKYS

Hepatocyte = assay: Induction of CYP3A4 mRNA expression in human hepatocytes at 1 to 40 uM after 48 hrs by real time PCR analysis; type: ADME, cell-based
MDR1 (P-gp, ABCB1) = MDR1 (P-gp, ABCB1) (Homo sapiens, UniProt P08183); assay: Activity at human MDR1 expressed in MDCK2 cells assessed as basolateral to apical mass balance at 3 uM by liquid scintillation counting analysis in presence of 3 uM P-gp and BCRP inhibitor GF120918; type: ADME, cell-based, MDCK-II; details: with GF120918 (P-gp and BCRP inhibitor), read-out: Activity
[3] = target: UDP-glucuronosyltransferase 2B15 (Homo sapiens, UniProt P54855); assay: (§1) Drug metabolism assessed as UDPGA-fortified human recombinant UGT2B15-mediated DTG glucuronide metabolite ((2S,3S,4S,5R,6S)-6-((4R,12aS)-9-(2,4-difluorobenzylcarbamoyl)-4-methyl-6,8-dioxo-3,4,6,8,12,12a-hexahydro-2H-[1,3]oxazino[3,2-d]pyrido[1,2-a]pyrazin-7-yloxy)-3,4,5-trihydroxytetrahydro-2H-pyran-2-carboxylic acid) formation at 16 uM after 120 mins by radio-HPLC analysis; type: ADME; details: recombinant enzyme
Sequence of UDP-glucuronosyltransferase 2B15 (P54855 whole entry): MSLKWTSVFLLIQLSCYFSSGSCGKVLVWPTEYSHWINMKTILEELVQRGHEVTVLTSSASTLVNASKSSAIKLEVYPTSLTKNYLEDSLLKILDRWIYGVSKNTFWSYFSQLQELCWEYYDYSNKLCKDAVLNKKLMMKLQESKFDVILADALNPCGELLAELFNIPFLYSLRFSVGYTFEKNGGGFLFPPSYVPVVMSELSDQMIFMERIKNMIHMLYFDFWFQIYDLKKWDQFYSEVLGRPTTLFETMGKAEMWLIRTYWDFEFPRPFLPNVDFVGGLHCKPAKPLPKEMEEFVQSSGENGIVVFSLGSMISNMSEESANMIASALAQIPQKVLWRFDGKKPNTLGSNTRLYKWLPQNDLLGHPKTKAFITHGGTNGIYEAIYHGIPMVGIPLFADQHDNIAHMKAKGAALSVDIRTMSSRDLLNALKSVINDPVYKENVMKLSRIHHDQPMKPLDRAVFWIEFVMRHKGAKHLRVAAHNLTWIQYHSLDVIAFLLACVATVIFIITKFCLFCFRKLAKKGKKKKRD

Cytochrome P450 2D6 = Cytochrome P450 2D6 (Homo sapiens, UniProt P10635); assay: Metabolism-dependent inhibition of CYP2D6 in human liver microsomes using bufuralol as substrate preincubated for 20 mins with NADPH prior to initiation of reaction with probe substrate by HPLC analysis; type: ADME
Sequence of Cytochrome P450 2D6 (P10635 whole entry): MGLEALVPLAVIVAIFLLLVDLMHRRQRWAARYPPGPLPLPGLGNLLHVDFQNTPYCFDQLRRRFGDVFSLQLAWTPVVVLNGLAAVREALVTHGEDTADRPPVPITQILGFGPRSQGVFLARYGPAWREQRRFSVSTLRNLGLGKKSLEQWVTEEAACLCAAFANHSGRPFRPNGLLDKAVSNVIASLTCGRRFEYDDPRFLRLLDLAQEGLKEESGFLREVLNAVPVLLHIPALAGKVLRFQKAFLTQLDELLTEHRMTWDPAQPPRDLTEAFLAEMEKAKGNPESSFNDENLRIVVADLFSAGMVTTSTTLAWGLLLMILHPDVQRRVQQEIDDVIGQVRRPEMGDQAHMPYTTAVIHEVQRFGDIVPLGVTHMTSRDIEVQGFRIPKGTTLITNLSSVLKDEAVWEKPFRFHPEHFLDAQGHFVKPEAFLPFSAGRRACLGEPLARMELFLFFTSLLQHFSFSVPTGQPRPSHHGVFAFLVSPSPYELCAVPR

[4] = target: T3, UDP-glucuronosyltransferase 1A1 (Homo sapiens, UniProt P22309); assay: as §1, with “intrinsic clearance for” for “UDPGA-fortified”, “UGT1A1-mediated” for “UGT2B15-mediated”, “M2” for “metabolite”, “formation” for “formation at 16 uM”, “mins measured per mg of protein” for “mins”; type: ADME; details: recombinant enzyme
T3 sequence (P22309 whole entry): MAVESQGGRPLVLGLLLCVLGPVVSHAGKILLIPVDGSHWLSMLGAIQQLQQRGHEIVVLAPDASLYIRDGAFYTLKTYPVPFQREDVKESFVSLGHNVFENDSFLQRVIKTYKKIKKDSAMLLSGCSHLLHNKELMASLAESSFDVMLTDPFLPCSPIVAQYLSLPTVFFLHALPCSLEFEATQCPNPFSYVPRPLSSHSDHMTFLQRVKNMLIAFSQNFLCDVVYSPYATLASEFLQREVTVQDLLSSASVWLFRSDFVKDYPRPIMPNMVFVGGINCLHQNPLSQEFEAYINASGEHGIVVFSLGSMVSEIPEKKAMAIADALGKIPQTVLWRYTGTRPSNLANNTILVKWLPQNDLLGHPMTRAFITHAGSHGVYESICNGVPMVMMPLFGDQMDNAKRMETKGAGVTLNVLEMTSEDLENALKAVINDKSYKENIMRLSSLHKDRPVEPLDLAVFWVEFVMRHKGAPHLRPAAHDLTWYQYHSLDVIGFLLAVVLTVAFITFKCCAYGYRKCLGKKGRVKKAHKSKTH

[5] = target: ATP-dependent translocase ABCB1 (Homo sapiens, UniProt P08183); assay: Inhibition of MDR1 (unknown origin) expressed in MDCK2 cells assessed as basolateral to apical transport of [3H]digoxin after 90 mins by liquid scintillation counting analysis; type: ADME, cell-based, MDCK-II
Sequence of ATP-dependent translocase ABCB1 (P08183 whole entry): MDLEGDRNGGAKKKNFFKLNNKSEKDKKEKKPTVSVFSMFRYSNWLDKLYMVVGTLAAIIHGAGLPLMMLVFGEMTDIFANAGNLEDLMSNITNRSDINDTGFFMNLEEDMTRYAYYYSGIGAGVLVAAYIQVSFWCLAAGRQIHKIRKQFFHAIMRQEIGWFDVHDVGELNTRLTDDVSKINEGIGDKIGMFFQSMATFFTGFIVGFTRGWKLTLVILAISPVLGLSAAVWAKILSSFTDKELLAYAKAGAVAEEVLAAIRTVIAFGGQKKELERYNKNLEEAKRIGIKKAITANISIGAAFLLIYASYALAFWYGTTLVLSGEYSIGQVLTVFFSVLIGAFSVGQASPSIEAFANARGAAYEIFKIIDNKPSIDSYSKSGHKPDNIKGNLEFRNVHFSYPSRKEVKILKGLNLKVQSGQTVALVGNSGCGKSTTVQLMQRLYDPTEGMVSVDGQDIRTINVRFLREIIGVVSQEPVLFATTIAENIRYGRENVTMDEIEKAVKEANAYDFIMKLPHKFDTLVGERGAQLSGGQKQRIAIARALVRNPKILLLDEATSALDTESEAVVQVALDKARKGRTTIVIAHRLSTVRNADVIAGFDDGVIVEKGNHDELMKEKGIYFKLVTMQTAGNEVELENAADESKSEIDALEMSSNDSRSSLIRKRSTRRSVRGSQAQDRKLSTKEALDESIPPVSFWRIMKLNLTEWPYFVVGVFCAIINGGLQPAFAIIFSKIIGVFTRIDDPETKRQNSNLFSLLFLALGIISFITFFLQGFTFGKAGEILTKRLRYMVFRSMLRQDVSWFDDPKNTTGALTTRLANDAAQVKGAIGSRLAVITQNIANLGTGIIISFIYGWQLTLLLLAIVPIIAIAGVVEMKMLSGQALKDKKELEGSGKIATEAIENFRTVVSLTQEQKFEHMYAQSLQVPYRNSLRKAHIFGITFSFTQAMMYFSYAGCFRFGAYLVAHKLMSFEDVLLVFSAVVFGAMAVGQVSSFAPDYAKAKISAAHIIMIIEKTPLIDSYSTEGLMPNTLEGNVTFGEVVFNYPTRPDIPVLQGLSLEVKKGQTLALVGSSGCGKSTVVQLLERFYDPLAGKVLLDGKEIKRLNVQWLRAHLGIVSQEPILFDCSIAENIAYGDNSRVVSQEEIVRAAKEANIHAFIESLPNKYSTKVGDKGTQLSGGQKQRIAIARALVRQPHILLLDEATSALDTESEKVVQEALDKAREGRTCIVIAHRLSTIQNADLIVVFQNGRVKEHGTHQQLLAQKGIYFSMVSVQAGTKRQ

CYP2B6 = CYP2B6 (Homo sapiens, UniProt P20813); assay: Inhibition of CYP2B6 in human liver microsomes using bupropion as substrate at 100 uM preincubated for 20 mins with substrate prior to initiation of reaction with NADPH by HPLC analysis; type: ADME; details: probe bupropion
Sequence of CYP2B6 (P20813 whole entry): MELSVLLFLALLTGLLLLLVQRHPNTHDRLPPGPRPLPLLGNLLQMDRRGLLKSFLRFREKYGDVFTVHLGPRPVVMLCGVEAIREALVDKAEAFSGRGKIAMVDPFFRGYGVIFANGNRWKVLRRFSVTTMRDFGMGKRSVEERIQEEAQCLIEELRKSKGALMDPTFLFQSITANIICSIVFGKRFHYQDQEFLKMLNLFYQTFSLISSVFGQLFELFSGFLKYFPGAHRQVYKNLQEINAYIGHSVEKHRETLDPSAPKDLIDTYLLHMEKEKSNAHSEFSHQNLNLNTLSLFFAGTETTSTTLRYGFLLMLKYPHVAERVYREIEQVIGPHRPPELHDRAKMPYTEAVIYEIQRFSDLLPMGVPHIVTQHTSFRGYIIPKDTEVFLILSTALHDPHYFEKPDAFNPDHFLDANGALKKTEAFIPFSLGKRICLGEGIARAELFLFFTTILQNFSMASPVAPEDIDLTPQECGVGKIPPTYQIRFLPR

Sequence of CYP2C19 (P33261 whole entry): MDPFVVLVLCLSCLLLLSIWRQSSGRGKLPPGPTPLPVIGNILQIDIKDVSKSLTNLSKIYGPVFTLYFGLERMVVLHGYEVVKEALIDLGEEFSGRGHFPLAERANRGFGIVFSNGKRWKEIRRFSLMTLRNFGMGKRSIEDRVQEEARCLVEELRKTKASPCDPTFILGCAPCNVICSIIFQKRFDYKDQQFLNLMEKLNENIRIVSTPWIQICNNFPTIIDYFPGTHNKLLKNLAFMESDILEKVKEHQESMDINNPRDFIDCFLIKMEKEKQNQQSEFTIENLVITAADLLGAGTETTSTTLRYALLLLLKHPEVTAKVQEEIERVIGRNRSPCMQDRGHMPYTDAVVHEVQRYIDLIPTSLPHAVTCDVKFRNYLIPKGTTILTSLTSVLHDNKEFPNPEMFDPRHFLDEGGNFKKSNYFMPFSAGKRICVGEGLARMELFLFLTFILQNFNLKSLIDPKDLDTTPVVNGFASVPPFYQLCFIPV

C[C@@H]1CCO[C@H]2Cn3cc(C(=O)NCc4ccc(F)cc4F)c(=O)c(O)c3C(=O)N12 [DOLUTEGRAVIR]
inhibition at 100 µM (CYP2C19): 20% | Drug metabolism (Cytochrome P450 2C9): metabolite_not_detected | IC50 [1]: > 100 µM | Drug metabolism (Cytochrome P450 1A2): metabolite_not_detected | inhibition (INH) [2]: 43% | Activity (Hepatocyte): Toxic | recovery at 3 µM (MDR1 (P-gp, ABCB1)): 75% | Drug metabolism [3]: metabolite_not_detected | IC50 (Cytochrome P450 2D6): > 100 µM | CL [4]: 3.2 µL/min/g | IC50 [5]: > 100 µM | inhibition at 100 µM (CYP2B6): 20%
